Patent US20090298857A1, “Treatment of Neurodegenerative Diseases Through Inhibition of HSP90” (SLOAN-KETTERING INSTITUTE FOR CANCER RESEARCH, priority 2006, published 2009)
Where two headings read alike, the source gives them in different places.

Legend:
[1] = known Hsp90 inhibitors; cited from earlier work
P-glycoprotein = P-glycoprotein (Homo sapiens, UniProt P08183); conditions: known Hsp90 inhibitor, cited from earlier work
[2] = tested on: p35 in primary neurons, COS-7/p35 and COS-7/p35/Tau cells; assay: p35 degradation and Tau phosphorylation in primary neurons and transfected COS-7 cells; type: cell-based, rat; conditions: compared with PU24FC1
Description: To further examine the roles played by Hsp90 in tauopathy, we made use of both PU24FC1 and 17-(allyllamino)-17-demethoxygeldanamycin (17AAG) and investigated their effects on both cdk5/p35 and TauP301L in primary neuronal and COS-7 cell cultures. Primary neuronal cultures were derived from the cerebral cortices of embryonic day 17 rat embryos and maintained as described previously (105). To determine the effects of PU24FC1 on protein steady-states and on Tau phosphorylation, PU24FC1 was added at day 6 of culture, and cells were incubated at 37° C. as indicated. […] After incubation, cells were harvested and lysed in 2% SDS, and the resulting samples were analyzed by Western blotting.
Phosphorylation of Tau by cdk5 is initiated through activation by complex formation with one of the neuron-specific proteins p35 or p39. […] In concordance, we assessed the influence of Hsp90 inhibition on p35 cellular expression. A dose- and time-dependent degradation of p35 by PU24FC1 was detected in primary neurons by immunoblot and by immunofluorescence techniques, as well as in COS-7/p35 and COS-7/p35/Tau cells. […]
We detected a dose- and time-dependent degradation of p35 by PU24FC1 in primary neurons, as well as in COS-7/p35 and COS-7/p35/Tau cells. […] Reduction of p35 levels by Hsp90 inhibition affected the activity of the cdk5/p35 complex, as measured using a substrate of cdk5, the histone-H1. […]

Chain of P-glycoprotein (P08183 whole entry): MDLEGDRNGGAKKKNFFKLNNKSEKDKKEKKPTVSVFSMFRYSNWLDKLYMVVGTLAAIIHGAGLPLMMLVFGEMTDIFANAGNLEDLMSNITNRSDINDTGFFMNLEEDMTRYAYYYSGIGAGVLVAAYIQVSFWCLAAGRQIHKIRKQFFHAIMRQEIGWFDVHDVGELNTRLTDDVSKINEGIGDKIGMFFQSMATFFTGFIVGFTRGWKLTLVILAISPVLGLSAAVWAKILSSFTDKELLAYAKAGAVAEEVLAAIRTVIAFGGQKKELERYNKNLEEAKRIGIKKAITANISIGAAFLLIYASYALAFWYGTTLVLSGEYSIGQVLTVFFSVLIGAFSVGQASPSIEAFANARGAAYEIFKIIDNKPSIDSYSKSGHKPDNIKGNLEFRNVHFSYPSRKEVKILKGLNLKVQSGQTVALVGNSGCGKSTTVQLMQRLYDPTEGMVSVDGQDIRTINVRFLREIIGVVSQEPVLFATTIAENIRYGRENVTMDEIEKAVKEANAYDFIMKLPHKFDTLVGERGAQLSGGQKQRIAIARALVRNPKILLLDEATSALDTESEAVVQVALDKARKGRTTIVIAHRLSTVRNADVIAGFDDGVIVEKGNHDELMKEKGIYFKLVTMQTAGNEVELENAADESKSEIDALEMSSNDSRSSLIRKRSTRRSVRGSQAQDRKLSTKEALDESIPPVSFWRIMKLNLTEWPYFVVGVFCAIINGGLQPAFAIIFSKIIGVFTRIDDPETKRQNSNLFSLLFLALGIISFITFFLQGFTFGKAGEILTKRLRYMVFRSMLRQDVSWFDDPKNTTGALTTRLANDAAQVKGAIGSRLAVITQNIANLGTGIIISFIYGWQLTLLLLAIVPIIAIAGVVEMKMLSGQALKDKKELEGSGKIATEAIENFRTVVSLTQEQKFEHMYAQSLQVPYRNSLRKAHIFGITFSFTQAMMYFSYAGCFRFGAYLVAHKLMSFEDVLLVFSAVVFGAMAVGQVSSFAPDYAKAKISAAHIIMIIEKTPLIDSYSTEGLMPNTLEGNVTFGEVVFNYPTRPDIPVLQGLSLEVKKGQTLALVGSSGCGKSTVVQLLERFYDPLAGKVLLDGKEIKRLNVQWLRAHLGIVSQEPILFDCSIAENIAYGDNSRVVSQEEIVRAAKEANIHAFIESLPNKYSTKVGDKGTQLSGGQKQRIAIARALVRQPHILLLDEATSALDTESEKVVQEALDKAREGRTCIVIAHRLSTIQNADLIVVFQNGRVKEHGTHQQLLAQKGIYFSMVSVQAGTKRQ

Row | SMILES | solubility [1] | P-gp substrate (P-glycoprotein) | P-gp substrate (P-glycoprotein; listed as 17-AAG) | effects on p35 and mTau [2]
1 | C=CCNC1=C2C[C@@H](C)C[C@H](OC)[C@H](O)[C@@H](C)/C=C(\C)[C@H](OC(N)=O)[C@@H](OC)/C=C\C=C(/C)C(=O)NC(=CC1=O)C2=O [Compound 17AAG, 17-(allyllamino)-17-demethoxygeldanamycin] | poorly soluble | is a P-gp substrate | is a P-glycoprotein substrate | Analogous effects
2 | COC1=C2C[C@@H](C)C[C@H](OC)[C@H](O)[C@@H](C)/C=C(\C)[C@H](OC(N)=O)[C@@H](OC)/C=C\C=C(/C)C(=O)NC(=CC1=O)C2=O [geldanamycin] | poorly soluble |  |  | 
3 | C[C@@H]1C[C@H]2O[C@@H]2/C=C\C=C\C(=O)Cc2c(Cl)c(O)cc(O)c2C(=O)O1 [radicicol] | poorly soluble |  |  | 
